Measurements taken from publication PMC10233844 (ACS Omega, 2023).

Experiments:
FAK = conditions: read-out: FAK inhibitor IC50; cited from earlier work
[1] = molecular target: thymidylate synthase (TS) (Homo sapiens, UniProt P04818); assay: In vitro thymidylate synthase enzymatic assay; format: biochemical; conditions: compared with pemetrexed
PC-3 cells [2] = assay: Cell cycle analysis by PI staining, flow cytometry; format: cell-based, human; conditions: PC-3, at pre calculated IC50, 48 h
PC-3 cells [3] = assay: Apoptosis analysis, Annexin V-propidium iodide flow cytometry; format: cell-based, human; conditions: PC-3, 48 h

thymidylate synthase (TS), sequence (P04818 whole entry): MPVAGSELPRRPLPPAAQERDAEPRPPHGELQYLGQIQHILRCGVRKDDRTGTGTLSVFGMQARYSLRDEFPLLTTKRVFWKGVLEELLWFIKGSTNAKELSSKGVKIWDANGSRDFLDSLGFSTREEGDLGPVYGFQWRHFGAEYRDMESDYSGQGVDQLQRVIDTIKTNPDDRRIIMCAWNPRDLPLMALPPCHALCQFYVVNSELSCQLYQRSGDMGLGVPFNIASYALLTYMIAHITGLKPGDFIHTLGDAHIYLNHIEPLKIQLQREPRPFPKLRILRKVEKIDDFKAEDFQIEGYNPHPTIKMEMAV

N.N.[Cl][Pt][Cl] [Cisplatin]
IC50 (FAK): 8.6 µM

C=CCc1ccc(OCc2nn(CN3CCCC3)c(=S)o2)c(OC)c1 [Compound 15, 5-((4-Allyl-2-methoxyphenoxy)methyl)-3-(pyrrolidin-1-ylmethyl)-1,3,4-oxadiazole-2(3H) Thione]
TS inhibition in words [1]: comparable TS repression to pemetrexed

C=CCc1ccc(OCc2nn(CN3CCOCC3)c(=S)o2)c(OC)c1 [Compound 17, 5-((4-Allyl-2-methoxyphenoxy)methyl)-3-(morpholinomethyl)-1,3,4-oxadiazole-2(3H)-thione]
percentage of cell population at G1 phase (PC-3 cells [2]): 29.30% | percentage of cell population at G2 phase (PC-3 cells [2]): 8.61% | percentage of cell population at the S phase (PC-3 cells [2]): 62.07% | necrotic cells (R1, % Parent) (PC-3 cells [3]): 3.56%
